Patent US20160199372A1, “IMIDAZOPYRIDAZINE KINASE INHIBITORS USEFUL TO TREATING A DISEASE OR DISORDER MEDIATED BY AAK1, SUCH AS ALZHEIMER'S DISEASE, BIPOLAR DISORDER, PAIN, SCHIZOPHRENIA” (Bristol-Myers Squibb Company, priority 2013, published 2016)

These compounds were tested against T1, GST-Xa-hAAK1 (Homo sapiens, UniProt Q2M2I8) (assay: AAK1 Kinase Assay). Conditions: ATP 22 μM; GST-Xa-hAAK1 3.5 nM; 3 hours at room temperature; Caliper LabChip 3000.
T1 construct: made in house
T1 sequence (Q2M2I8 whole entry): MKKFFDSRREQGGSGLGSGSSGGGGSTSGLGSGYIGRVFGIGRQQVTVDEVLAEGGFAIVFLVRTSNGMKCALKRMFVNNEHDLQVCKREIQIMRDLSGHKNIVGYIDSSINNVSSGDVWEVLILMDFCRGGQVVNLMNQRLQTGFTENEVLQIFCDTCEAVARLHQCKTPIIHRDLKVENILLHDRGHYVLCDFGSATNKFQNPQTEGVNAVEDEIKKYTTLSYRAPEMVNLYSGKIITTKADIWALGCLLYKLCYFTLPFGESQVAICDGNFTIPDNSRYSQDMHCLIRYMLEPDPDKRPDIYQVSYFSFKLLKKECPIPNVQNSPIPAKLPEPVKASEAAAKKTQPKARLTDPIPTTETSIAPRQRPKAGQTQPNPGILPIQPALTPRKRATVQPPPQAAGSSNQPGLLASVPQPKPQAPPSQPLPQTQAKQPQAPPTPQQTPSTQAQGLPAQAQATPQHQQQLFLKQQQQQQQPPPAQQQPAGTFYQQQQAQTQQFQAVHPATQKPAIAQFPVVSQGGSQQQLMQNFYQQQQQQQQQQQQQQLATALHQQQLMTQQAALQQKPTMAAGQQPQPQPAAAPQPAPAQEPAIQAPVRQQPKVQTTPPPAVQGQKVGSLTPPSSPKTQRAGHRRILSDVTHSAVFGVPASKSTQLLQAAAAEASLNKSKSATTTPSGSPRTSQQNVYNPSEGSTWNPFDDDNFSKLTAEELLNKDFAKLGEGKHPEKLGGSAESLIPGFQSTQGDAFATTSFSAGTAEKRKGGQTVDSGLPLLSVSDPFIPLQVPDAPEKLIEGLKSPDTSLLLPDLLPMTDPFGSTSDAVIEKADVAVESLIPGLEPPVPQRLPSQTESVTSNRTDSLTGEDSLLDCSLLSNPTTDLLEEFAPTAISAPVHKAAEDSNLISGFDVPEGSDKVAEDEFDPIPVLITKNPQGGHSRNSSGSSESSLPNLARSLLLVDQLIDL
Format: biochemical
Source text: IC50 values were derived by non-linear regression analysis.
In the case of `CC(C)c1nc(-c2cccc(NC(=O)c3cnc4c(Nc5ccccc5)cc(N[C@H]5CC[C@H](N)CC5)nn34)c2)no1` [Example 1, 6-(trans-4-Aminocyclohexylamino)-N-(3-(5-isopropyl-1,2,4-oxadiazol-3-yl)phenyl)-8-(phenylamino)imidazo[1,2-b]pyridazine-3-carboxamide], the IC50 is reported as 10 nM. `CC(C)c1nnc(-c2cccc(NC(=O)c3cnc4c(Nc5ccccc5)cc(N[C@H]5CC[C@H](N)CC5)nn34)c2)s1` [Example 2, 6-(trans-4-Aminocyclohexylamino)-N-(3-(5-isopropyl-1,3,4-thiadiazol-2-yl)phenyl)-8-(phenylamino)imidazo[1,2-b]pyridazine-3-carboxamide] gave an IC50 of 11 nM. Work on `COc1ccc(Nc2cc(N[C@H]3CC[C@H](N)CC3)nn3c(-c4ccsc4)cnc23)cc1` [Example 22, N^6-(trans-4-Aminocyclohexyl)-N^8-(4-methoxyphenyl)-3-(thiophen-3-yl)imidazo[1,2-b]pyridazine-6,8-diamine] yielded an IC50 of 9 nM. `Cc1nc(-c2cccc(NC(=O)c3cnc4c(Nc5ccccc5)cc(N[C@H]5CC[C@H](N)CC5)nn34)c2)cs1` [Example 7, 6-(trans-4-Aminocyclohexylamino)-N-(3-(2-methylthiazol-4-yl)phenyl)-8-(phenylamino)imidazo[1,2-b]pyridazine-3-carboxamide] was tested, and the IC50 was 114 nM. In the case of `N[C@H]1CC[C@H](Nc2ccc3ncc(C(=O)Nc4cccc(-c5coc(-c6ccccc6)n5)c4)n3n2)CC1` [Example 16, 6-(trans-4-Aminocyclohexylamino)-N-(3-(2-phenyloxazol-4-yl)phenyl)imidazo[1,2-b]pyridazine-3-carboxamide], the IC50 is reported as 154 nM. In the case of `CC(C)c1nc(-c2cccc(NC(=O)c3cnc4c(Nc5ccccc5)cc(N[C@H]5CC[C@H](N)CC5)nn34)c2)co1` [Example 3, 6-(trans-4-Aminocyclohexylamino)-N-(3-(2-isopropyloxazol-4-yl)phenyl)-8-(phenylamino)imidazo[1,2-b]pyridazine-3-carboxamide], the IC50 is reported as 94 nM. With `N[C@H]1CC[C@H](Nc2cc(Nc3ccccc3)c3ncc(-c4ccsc4)n3n2)CC1` [Example 17, N^6-(trans-4-Aminocyclohexyl)-N^8-phenyl-3-(thiophen-3-yl)imidazo[1,2-b]pyridazine-6,8-diamine] the IC50 was 10 nM. `CNc1cc(N[C@H]2CC[C@H](N)CC2)nn2c(C(=O)Nc3cccc(-c4noc(C(C)C)n4)c3)cnc12` [Example 10, 6-(trans-4-Aminocyclohexylamino)-N-(3-(5-isopropyl-1,2,4-oxadiazol-3-yl)phenyl)-8-(methylamino)imidazo[1,2-b]pyridazine-3-carboxamide] gave an IC50 of 16 nM. In the case of `CNc1cc(N[C@H]2CC[C@H](N)CC2)nn2c(-c3ccsc3)cnc12` [Example 20, N^6-(trans-4-Aminocyclohexyl)-N^8-methyl-3-(thiophen-3-yl)imidazo[1,2-b]pyridazine-6,8-diamine], the IC50 is reported as 38 nM. Compound `CNc1cc(N[C@H]2CC[C@H](N)CC2)nn2c(C(=O)Nc3cccc(-c4nnc(C(C)C)s4)c3)cnc12` [Example 8, 6-(trans-4-Aminocyclohexylamino)-N-(3-(5-isopropyl-1,3,4-thiadiazol-2-yl)phenyl)-8-(methylamino)imidazo[1,2-b]pyridazine-3-carboxamide] has an IC50 of 8.9 nM. `CC(C)c1nnc(-c2cccc(NC(=O)c3cnc4ccc(N[C@H]5CC[C@H](N)CC5)nn34)c2)s1` [Example 12, 6-(trans-4-Aminocyclohexylamino)-N-(3-(5-isopropyl-1,3,4-thiadiazol-2-yl)phenyl)imidazo[1,2-b]pyridazine-3-carboxamide] gave an IC50 of 9.1 nM. With `N[C@H]1CC[C@H](Nc2cc(NC3CC3)c3ncc(-c4ccsc4)n3n2)CC1` [Example 21, N^6-(trans-4-Aminocyclohexyl)-N^8-cyclopropyl-3-(thiophen-3-yl)imidazo[1,2-b]pyridazine-6,8-diamine] the IC50 was 40 nM. Compound `N[C@H]1CC[C@H](Nc2cc(Nc3ccccc3)c3ncc(C(=O)Nc4cccc(-c5coc(-c6ccccc6)n5)c4)n3n2)CC1` [Example 6, 6-(trans-4-Aminocyclohexylamino)-8-(phenylamino)-N-(3-(2-phenyloxazol-4-yl)phenyl)imidazo[1,2-b]pyridazine-3-carboxamide] has an IC50 of 940 nM. `Cc1nc(-c2cccc(NC(=O)c3cnc4c(Nc5ccccc5)cc(N[C@H]5CC[C@H](N)CC5)nn34)c2)co1` [Example 5, 6-(trans-4-Aminocyclohexylamino)-N-(3-(2-methyloxazol-4-yl)phenyl)-8-(phenylamino)imidazo[1,2-b]pyridazine-3-carboxamide] gave an IC50 of 79 nM. With `CNc1cc(N[C@H]2CC[C@H](N)CC2)nn2c(C(=O)Nc3cccc(-c4nnn(C(C)C)n4)c3)cnc12` [Example 9, 6-(trans-4-Aminocyclohexylamino)-N-(3-(2-isopropyl-2H-tetrazol-5-yl)phenyl)-8-(methylamino)imidazo[1,2-b]pyridazine-3-carboxamide] the IC50 was 8 nM. `CC(C)n1nnc(-c2cccc(NC(=O)c3cnc4ccc(N[C@H]5CC[C@H](N)CC5)nn34)c2)n1` [Example 13, 6-(trans-4-Aminocyclohexylamino)-N-(3-(2-isopropyl-2H-tetrazol-5-yl)phenyl)imidazo[1,2-b]pyridazine-3-carboxamide] was tested, and the IC50 was 12 nM. For `CC(C)c1nc(-c2cccc(NC(=O)c3cnc4ccc(N[C@H]5CC[C@H](N)CC5)nn34)c2)co1` [Example 14, 6-(trans-4-Aminocyclohexylamino)-N-(3-(2-isopropyloxazol-4-yl)phenyl)imidazo[1,2-b]pyridazine-3-carboxamide], the IC50 was 158 nM. Work on `Cc1nc(-c2cccc(NC(=O)c3cnc4ccc(N[C@H]5CC[C@H](N)CC5)nn34)c2)co1` [Example 15, 6-(trans-4-Aminocyclohexylamino)-N-(3-(2-methyloxazol-4-yl)phenyl)imidazo[1,2-b]pyridazine-3-carboxamide] yielded an IC50 of 342 nM. Compound `CC(C)c1nc(-c2cccc(NC(=O)c3cnc4ccc(N[C@H]5CC[C@H](N)CC5)nn34)c2)no1` [Example 11, 6-(trans-4-Aminocyclohexylamino)-N-(3-(5-isopropyl-1,2,4-oxadiazol-3-yl)phenyl)imidazo[1,2-b]pyridazine-3-carboxamide] has an IC50 of 27 nM. `CN(C)[C@H]1CC[C@H](Nc2cc(Nc3ccccc3)c3ncc(-c4ccsc4)n3n2)CC1` [Example 19, N^6-(trans-4-(Dimethylamino)cyclohexyl)-N^8-phenyl-3-(thiophen-3-yl)imidazo[1,2-b]pyridazine-6,8-diamine] gave an IC50 of 12 nM. In the case of `CC(C)n1nnc(-c2cccc(NC(=O)c3cnc4c(Nc5ccccc5)cc(N[C@H]5CC[C@H](N)CC5)nn34)c2)n1` [Example 4, 6-(trans-4-Aminocyclohexylamino)-N-(3-(2-isopropyl-2H-tetrazol-5-yl)phenyl)-8-(phenylamino)imidazo[1,2-b]pyridazine-3-carboxamide], the IC50 is reported as 5.1 nM.

The compounds below were run on mice (assay: formalin paw test (pain response)). Conditions: 60 mg/kg sc; administered 30 minutes prior to formalin injection; % response relative to gabapentin 200 mg/kg.
Format: in vivo, mouse
Experimental: AAK1 homozygous (−/−) and their wild-type (+/+) littermates were tested using the formalin paw test in order to assess their acute and tonic nociceptive responses. For these tests, Automatic Nociception Analyzers (purchased from the Ozaki lab at University of California, San Diego) were used. A metal band was placed around the left hind paw of each mouse 30 minutes prior to testing. After the 30-minute acclimation period, 20 μl of 5% formalin is subcutaneously injected in the dorsal surface of the left hind paw. Mice were individually housed in cylindrical chambers for 45 minutes. Fresh 5% formalin solution was prepared by diluting formaldehyde (Formalde-fresh 20%, Fisher Scientific, Fair Lawn, N.J.) with distilled water. Investigatory compounds were administered 30 minutes prior to formalin injection.
A computer recorded flinches per minute, total flinches for phase I (acute phase=first 8 minutes), and total flinches for phase II (tonic phase=time between minutes 20-40 or 10-60 minutes for drug studies) through an electromagnetic field. See Yaksh T L, Ozaki G, McCumber D, Rathbun M, Svensson C, Malkmus S, Yaksh M C. An automated flinch detecting system for use in the formalin nociceptive bioassay. J Appl Physiol., 2001; 90:2386-402.
The same test was used to confirm that the administration of an AAK1 inhibitor can also affect pain response. […]
For `CC(C)c1nc(-c2cccc(NC(=O)c3cnc4c(Nc5ccccc5)cc(N[C@H]5CC[C@H](N)CC5)nn34)c2)no1` [Example 1, 6-(trans-4-Aminocyclohexylamino)-N-(3-(5-isopropyl-1,2,4-oxadiazol-3-yl)phenyl)-8-(phenylamino)imidazo[1,2-b]pyridazine-3-carboxamide], the Response was 59%.

Same assay, conditions: 200 mg/kg sc; administered 30 minutes prior to formalin injection; % response relative to gabapentin 200 mg/kg
`NCC1(CC(=O)O)CCCCC1` [Gabapentin, reference compound] gave a Response of 73%.
